For one test, the system named is HSV-1 (McIntyre Strain). The experiment in a line: HSV-1 replication in human foreskin fibroblasts (virus titre). It is filed as cell-based, Herpes Simplex virus. The note with it: for Virus titre: human fibroblasts; for Reduction factor: virus titre vs untreated. The procedure: FIG. 1A relates to the concentration of S-acetyl glutathione of 20 mM, and FIG. 1B to the concentration of 10 mM. […] With the evaluation model used, a combination index of less than 1 signifies a synergistic effect, a combination index equal to 1 an additive effect, and a combination index of greater than 1 an antagonistic effect.

In another test the test system is VZV (Strain 4400/95). The conditions noted are these: RPE cells.
Setting [1] is: S-acetyl glutathione 10 mM alone.
The mark [2] stands for this setting: S-acetyl glutathione 20 mM alone.

Like-named read-outs stand apart in the source and are kept apart here.

Regarding `Nc1nc2c(ncn2COCCO)c(=O)[nH]1` [ACV, 9-[(2-hydroxyethoxy)methyl)guanine], the Virus titre in the test on HSV-1 (McIntyre Strain) (ACV 0.5 μM alone) is reported as 3.1 × 10^6 TCID60/ml; in the test with HSV-1 (McIntyre Strain) (ACV 1 μM alone), 3.3 × 10^5 TCID60/ml; with HSV-1 (McIntyre Strain) (ACV 2 μM alone) it was 3.8 × 10^3 TCID60/ml. Moreover, the Reduction factor in the test with HSV-1 (McIntyre Strain) (ACV 0.5 μM alone) amounted to 6.8; with HSV-1 (McIntyre Strain) (ACV 1 μM alone), 64; with HSV-1 (McIntyre Strain) (ACV 2 μM alone), 5526. Further, the “Effectiveness against HSV-1” value with HSV-1 (McIntyre Strain) (ACV alone, especially in the concentration of 2 μM) is on record as “clear effectiveness”.

Consider `CC(=O)SC[C@H](NC(=O)CC[C@H](N)C(=O)O)C(=O)NCC(=O)O` [S-acetyl glutathione], for which the Virus titre with HSV-1 (McIntyre Strain) (setting [1]) is given as 1.5 × 10^6 TCID60/ml; in the test on HSV-1 (McIntyre Strain) (setting [2]), 2.4 × 10^5 TCID60/ml. The Reduction factor in the test with HSV-1 (McIntyre Strain) (setting [1]) is reported as 14; in the test on HSV-1 (McIntyre Strain) (setting [2]), 91. The “Concentration from which effective against HSV-1” value in the test with HSV-1 (McIntyre Strain) (S-acetyl glutathione alone) was not below 10 mM. For the same molecule, the figures for the Plaque number in the test with VZV (Strain 4400/95) (setting [1]) and with VZV (Strain 4400/95) (setting [2]) were 59% and 52%, respectively.

For the origin of these results see patent US6448227B1, “Therapeutically effective substance mixture” (priority 1999, dated 2002).
